Laboratory results taken from ChEMBL document CHEMBL3991601, “The target landscape of clinical kinase drugs” (Science, 2017).
Active and inactive are the calls of the source. Rule as the data show it, for most assays here: actives have a measured Kd and inactives only a lower limit.

Legend:
[1] = biological target: PAS domain-containing serine/threonine-protein kinase (Homo sapiens, UniProt Q96RG2)
[2] = biological target: T1, Glycogen phosphorylase, liver form (Homo sapiens, UniProt P06737); type: subcellular, K-562, COLO 205, SK-N-BE(2) and MV-4-11, Cell lysate; settings: read-out: Kd apparent
T1 sequence (P06737 whole entry): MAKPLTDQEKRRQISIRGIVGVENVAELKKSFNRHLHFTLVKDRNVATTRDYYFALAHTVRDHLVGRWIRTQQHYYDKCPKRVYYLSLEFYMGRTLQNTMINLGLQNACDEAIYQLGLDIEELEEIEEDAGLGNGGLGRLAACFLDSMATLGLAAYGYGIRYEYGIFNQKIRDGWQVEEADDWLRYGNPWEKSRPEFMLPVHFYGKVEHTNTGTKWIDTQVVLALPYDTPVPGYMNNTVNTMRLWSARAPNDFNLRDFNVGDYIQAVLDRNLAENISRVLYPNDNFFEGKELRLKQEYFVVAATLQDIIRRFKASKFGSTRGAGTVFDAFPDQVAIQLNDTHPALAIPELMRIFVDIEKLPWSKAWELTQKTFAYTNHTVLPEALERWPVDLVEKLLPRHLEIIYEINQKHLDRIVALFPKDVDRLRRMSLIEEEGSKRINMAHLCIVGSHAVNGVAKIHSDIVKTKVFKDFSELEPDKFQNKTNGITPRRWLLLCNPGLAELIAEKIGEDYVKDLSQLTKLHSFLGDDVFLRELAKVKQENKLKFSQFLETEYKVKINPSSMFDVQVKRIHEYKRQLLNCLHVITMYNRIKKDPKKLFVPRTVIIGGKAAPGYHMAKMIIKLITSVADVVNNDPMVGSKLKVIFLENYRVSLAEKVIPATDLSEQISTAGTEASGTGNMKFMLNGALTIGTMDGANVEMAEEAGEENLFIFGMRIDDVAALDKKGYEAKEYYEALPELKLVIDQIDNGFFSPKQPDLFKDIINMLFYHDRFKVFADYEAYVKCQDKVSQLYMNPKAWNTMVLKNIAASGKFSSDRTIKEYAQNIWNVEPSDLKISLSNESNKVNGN

[3] = biological target: Serine/threonine-protein kinase 10 (Homo sapiens, UniProt O94804)
[4] = biological target: T2, Uncharacterized protein FLJ45252 (Homo sapiens, UniProt Q6ZSR9); settings: read-out: Kd apparent; k-562, colo 205, sk-n-be(2) and mv-4-11
T2 sequence (Q6ZSR9 whole entry): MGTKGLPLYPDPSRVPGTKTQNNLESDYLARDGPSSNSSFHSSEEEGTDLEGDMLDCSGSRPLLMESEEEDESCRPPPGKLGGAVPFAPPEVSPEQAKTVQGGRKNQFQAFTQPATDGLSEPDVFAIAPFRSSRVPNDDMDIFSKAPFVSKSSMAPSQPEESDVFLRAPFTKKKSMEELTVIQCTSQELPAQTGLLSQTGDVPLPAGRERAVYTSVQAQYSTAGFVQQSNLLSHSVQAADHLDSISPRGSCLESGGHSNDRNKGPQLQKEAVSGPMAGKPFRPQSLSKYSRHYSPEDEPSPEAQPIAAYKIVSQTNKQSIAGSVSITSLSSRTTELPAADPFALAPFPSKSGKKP

[5] = biological target: Tyrosine-protein kinase SYK (Homo sapiens, UniProt P43405)
[6] = biological target: Adenylate kinase 2, mitochondrial (Homo sapiens, UniProt P54819)
[7] = biological target: Casein kinase I isoform alpha (Homo sapiens, UniProt P48729)
[8] = biological target: Dual specificity testis-specific protein kinase 1 (Homo sapiens, UniProt Q15569)
Aurora kinase A = biological target: T3, Aurora kinase A (Homo sapiens, UniProt O14965)
T3 sequence (O14965 whole entry): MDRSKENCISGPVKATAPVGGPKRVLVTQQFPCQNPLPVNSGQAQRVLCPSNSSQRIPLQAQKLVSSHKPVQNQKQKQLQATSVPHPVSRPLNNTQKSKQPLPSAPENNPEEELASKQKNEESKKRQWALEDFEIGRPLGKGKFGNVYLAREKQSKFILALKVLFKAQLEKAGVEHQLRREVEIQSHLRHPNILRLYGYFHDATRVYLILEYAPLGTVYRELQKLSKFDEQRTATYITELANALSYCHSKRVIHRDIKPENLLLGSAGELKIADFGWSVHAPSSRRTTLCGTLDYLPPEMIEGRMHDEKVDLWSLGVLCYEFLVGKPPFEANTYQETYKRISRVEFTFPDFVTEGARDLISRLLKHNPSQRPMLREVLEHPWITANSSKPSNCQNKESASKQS

[9] = biological target: G protein-coupled receptor kinase 6 (Homo sapiens, UniProt P43250)
[10] = biological target: Tyrosine-protein kinase Yes (Homo sapiens, UniProt P07947)
[11] = biological target: AP2-associated protein kinase 1 (Homo sapiens, UniProt Q2M2I8)
Also: in the data inactive means no Kd found up to 30 µM.

Chain of AP2-associated protein kinase 1 (Q2M2I8 whole entry): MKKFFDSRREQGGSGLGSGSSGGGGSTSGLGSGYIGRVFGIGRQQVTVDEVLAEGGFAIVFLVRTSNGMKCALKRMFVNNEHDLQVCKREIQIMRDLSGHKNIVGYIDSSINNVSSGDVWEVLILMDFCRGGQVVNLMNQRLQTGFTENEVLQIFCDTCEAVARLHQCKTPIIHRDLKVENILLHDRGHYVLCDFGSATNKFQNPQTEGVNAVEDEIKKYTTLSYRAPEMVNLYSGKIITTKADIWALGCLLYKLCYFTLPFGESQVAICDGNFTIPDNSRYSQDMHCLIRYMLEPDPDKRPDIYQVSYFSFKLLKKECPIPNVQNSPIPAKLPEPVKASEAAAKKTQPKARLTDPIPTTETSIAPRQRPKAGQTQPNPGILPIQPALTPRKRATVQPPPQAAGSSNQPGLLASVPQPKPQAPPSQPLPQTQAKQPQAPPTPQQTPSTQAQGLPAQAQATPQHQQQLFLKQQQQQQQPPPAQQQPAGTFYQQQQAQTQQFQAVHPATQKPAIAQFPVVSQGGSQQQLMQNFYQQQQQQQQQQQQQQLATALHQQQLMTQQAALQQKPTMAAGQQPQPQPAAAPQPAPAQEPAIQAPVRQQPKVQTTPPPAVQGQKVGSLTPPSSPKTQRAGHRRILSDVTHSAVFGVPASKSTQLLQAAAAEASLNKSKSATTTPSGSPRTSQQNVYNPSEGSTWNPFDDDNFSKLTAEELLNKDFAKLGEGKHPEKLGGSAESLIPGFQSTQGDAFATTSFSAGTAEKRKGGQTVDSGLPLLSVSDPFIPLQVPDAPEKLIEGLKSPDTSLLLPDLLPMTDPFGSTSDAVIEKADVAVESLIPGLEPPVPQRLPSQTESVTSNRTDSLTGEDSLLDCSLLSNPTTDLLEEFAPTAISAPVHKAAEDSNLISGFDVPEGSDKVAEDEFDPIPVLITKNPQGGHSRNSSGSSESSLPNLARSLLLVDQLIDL
Chain of Dual specificity testis-specific protein kinase 1 (Q15569 whole entry): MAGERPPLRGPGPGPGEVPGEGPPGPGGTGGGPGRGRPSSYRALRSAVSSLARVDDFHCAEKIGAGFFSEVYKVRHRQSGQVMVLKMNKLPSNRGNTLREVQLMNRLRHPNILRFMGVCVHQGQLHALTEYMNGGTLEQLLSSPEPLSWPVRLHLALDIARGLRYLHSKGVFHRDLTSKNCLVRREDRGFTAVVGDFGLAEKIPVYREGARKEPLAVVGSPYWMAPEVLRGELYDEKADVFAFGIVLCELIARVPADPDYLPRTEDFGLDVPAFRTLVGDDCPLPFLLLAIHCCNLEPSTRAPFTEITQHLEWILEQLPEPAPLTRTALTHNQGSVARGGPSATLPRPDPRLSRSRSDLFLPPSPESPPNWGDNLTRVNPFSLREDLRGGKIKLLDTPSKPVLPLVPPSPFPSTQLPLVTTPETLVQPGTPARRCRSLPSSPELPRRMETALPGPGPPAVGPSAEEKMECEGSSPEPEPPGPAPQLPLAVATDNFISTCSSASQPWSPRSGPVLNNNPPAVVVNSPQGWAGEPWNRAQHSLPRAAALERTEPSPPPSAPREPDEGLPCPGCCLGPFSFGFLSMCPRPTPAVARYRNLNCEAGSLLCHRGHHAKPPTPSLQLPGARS
Chain of G protein-coupled receptor kinase 6 (P43250 whole entry): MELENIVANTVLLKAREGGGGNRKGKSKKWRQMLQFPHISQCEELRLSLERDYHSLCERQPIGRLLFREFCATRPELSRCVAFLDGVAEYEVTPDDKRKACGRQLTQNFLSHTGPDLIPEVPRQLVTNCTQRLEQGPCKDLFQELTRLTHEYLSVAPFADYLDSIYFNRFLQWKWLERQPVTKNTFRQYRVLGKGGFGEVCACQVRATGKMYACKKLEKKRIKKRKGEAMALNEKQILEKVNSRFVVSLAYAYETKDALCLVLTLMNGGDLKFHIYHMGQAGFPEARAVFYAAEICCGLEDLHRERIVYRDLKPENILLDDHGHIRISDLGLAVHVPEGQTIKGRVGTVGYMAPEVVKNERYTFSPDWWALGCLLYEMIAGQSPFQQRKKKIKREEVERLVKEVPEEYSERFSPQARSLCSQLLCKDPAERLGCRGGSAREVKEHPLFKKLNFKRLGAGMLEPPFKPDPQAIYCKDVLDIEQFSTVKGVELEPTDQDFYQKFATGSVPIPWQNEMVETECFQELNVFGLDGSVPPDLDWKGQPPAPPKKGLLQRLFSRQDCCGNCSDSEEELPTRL
Chain of Serine/threonine-protein kinase 10 (O94804 whole entry): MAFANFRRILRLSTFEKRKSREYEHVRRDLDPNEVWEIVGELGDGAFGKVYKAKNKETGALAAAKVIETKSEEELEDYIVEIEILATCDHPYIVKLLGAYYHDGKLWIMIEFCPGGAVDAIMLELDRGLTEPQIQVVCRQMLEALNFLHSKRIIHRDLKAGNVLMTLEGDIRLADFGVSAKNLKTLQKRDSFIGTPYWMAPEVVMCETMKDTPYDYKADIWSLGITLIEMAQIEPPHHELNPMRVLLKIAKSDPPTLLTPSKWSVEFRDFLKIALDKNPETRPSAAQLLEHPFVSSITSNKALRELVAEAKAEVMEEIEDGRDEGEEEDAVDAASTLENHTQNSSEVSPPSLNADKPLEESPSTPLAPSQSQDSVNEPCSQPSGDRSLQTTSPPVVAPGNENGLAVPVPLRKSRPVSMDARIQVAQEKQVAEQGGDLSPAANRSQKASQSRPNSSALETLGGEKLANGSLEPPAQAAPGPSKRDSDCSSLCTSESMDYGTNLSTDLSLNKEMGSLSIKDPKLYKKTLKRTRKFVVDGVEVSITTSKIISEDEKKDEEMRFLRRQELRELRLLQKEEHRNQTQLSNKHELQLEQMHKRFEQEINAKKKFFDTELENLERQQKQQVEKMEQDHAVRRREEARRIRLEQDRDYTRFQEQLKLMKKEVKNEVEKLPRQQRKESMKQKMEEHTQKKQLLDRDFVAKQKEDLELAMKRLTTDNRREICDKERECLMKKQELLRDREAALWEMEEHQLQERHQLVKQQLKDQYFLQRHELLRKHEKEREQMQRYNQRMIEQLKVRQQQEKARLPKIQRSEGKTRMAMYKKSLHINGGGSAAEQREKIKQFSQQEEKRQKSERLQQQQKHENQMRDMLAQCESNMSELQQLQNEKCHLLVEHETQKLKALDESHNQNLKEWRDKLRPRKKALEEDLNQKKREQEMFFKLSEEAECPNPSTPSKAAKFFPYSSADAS
Chain of Tyrosine-protein kinase Yes (P07947 whole entry): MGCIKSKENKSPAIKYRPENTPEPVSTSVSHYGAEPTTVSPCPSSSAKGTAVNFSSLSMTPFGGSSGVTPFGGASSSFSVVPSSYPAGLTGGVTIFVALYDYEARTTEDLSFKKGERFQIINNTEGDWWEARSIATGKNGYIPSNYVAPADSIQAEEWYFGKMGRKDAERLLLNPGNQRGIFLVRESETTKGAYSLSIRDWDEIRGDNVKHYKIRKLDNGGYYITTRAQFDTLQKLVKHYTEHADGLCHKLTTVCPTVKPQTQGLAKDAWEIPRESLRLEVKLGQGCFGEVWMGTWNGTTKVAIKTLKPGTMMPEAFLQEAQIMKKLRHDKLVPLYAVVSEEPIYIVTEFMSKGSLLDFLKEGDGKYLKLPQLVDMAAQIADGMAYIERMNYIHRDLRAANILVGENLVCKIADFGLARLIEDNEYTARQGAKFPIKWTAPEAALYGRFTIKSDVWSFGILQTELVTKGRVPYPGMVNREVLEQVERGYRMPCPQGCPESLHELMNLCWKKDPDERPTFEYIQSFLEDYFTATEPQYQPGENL
Chain of PAS domain-containing serine/threonine-protein kinase (Q96RG2 whole entry, the tested form may be a part): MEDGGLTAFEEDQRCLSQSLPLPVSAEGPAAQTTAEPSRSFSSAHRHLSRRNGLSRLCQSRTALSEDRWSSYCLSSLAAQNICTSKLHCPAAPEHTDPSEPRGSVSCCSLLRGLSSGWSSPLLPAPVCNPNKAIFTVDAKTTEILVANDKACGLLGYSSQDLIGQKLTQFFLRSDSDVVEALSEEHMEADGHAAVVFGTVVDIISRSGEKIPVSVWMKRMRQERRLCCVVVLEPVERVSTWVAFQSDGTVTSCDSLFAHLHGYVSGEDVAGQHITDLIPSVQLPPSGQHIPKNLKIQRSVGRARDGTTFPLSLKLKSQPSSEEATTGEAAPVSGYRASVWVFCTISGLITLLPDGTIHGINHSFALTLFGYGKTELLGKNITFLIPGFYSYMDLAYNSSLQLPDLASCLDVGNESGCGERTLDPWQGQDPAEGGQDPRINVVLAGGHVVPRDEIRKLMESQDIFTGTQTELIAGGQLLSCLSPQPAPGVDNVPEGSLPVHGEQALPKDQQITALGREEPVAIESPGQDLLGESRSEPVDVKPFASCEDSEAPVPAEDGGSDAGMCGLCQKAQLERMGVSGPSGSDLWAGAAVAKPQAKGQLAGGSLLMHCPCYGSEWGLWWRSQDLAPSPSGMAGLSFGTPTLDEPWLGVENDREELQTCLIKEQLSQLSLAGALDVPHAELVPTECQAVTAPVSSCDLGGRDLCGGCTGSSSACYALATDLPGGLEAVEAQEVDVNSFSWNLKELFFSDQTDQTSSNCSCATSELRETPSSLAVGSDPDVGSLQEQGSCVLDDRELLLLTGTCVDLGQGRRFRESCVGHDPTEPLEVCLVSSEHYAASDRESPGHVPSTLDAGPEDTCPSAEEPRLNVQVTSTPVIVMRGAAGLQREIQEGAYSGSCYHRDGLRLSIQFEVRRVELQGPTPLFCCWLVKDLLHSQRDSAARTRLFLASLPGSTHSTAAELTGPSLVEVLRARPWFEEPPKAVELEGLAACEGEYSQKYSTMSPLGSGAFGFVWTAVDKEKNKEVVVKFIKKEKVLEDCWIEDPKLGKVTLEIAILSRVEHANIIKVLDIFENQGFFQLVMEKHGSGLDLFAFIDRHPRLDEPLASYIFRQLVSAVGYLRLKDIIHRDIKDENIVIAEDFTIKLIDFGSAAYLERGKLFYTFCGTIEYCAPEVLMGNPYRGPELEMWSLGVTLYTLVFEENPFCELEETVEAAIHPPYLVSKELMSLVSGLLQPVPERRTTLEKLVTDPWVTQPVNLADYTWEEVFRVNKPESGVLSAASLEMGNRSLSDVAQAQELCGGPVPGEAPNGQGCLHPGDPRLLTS

Row | Kd [1] | Kd [2] | Kd [3] | Kd [4] | Kd [5] | Kd [6] | Kd [7] | Kd [8] | Kd (Aurora kinase A) | Kd [9] | Kd [10] | Kd [11] | Compound
1 | > 30 µM (inactive) | > 30 µM (inactive) | 28.6 µM (active) | > 30 µM (inactive) | > 30 µM (inactive) | > 30 µM (inactive) | > 30 µM (inactive) | > 30 µM (inactive) | > 30 µM (inactive) | > 30 µM (inactive) | 6.27 µM (active) | > 30 µM (inactive) | C=CC(=O)Nc1cc2c(Nc3ccc(F)c(Cl)c3)ncnc2cc1C#CC(C)(C)N1CCN(C)CC1 [AV-412 FREE BASE]
2 | > 30 µM (inactive) | > 30 µM (inactive) | > 30 µM (inactive) | > 30 µM (inactive) | > 30 µM (inactive) | > 30 µM (inactive) | > 30 µM (inactive) | > 30 µM (inactive) | > 30 µM (inactive) | > 30 µM (inactive) | > 30 µM (inactive) | > 30 µM (inactive) | COc1cc2ncnc(Oc3cccc(NC(=O)Nc4cc(C(C)(C)C(F)(F)F)on4)c3)c2cc1OC [CEP-32496]
3 | > 30 µM (inactive) | > 30 µM (inactive) | 57.5 µM (active) | > 30 µM (inactive) | > 30 µM (inactive) | 1.04 µM (active) | > 30 µM (inactive) | > 30 µM (inactive) | > 30 µM (inactive) | > 30 µM (inactive) | > 30 µM (inactive) | > 30 µM (inactive) | C#Cc1cccc(Nc2ncnc3cc(OC)c(OCCCCCCC(=O)NO)cc23)c1 [CUDC-101]
4 | > 30 µM (inactive) | > 30 µM (inactive) | > 30 µM (inactive) | > 30 µM (inactive) | > 30 µM (inactive) | > 30 µM (inactive) | > 30 µM (inactive) | > 30 µM (inactive) | > 30 µM (inactive) | > 30 µM (inactive) | > 30 µM (inactive) | > 30 µM (inactive) | COc1ccc(S(=O)(=O)N(C(C)=O)c2ccccc2/C=C/c2cc[n+]([O-])cc2)cc1 [HMN-214]
5 | > 30 µM (inactive) | > 30 µM (inactive) | > 30 µM (inactive) | > 30 µM (inactive) | > 30 µM (inactive) | > 30 µM (inactive) | > 30 µM (inactive) | > 30 µM (inactive) | > 30 µM (inactive) | > 30 µM (inactive) | > 30 µM (inactive) | > 30 µM (inactive) | NC1(c2ccc(-c3nc4ccn5c(=O)[nH]nc5c4cc3-c3ccccc3)cc2)CCC1 [MK-2206]
6 | > 30 µM (inactive) | > 30 µM (inactive) | > 30 µM (inactive) | > 30 µM (inactive) | > 30 µM (inactive) | > 30 µM (inactive) | > 30 µM (inactive) | > 30 µM (inactive) | > 30 µM (inactive) | > 30 µM (inactive) | > 30 µM (inactive) | > 30 µM (inactive) | Cn1cc(-c2cnc3ccc4ccc(CS(=O)(=O)NCc5ccccn5)cc4c(=O)c3c2)cn1 [MK-8033]
7 | > 30 µM (inactive) | > 30 µM (inactive) | > 30 µM (inactive) | > 30 µM (inactive) | > 30 µM (inactive) | > 30 µM (inactive) | > 30 µM (inactive) | > 30 µM (inactive) | > 30 µM (inactive) | > 30 µM (inactive) | > 30 µM (inactive) | > 30 µM (inactive) | FC(F)(F)c1ccc(/C=C/c2nc(COc3ccc(CCCCn4ccnn4)cc3)co2)cc1 [MUBRITINIB]
8 | > 30 µM (inactive) | > 30 µM (inactive) | > 30 µM (inactive) | > 30 µM (inactive) | > 30 µM (inactive) | > 30 µM (inactive) | > 30 µM (inactive) | > 30 µM (inactive) | > 30 µM (inactive) | > 30 µM (inactive) | > 30 µM (inactive) | > 30 µM (inactive) | COc1ncc(-c2ccc3nccc(-c4ccnnc4)c3c2)cc1NS(=O)(=O)c1ccc(F)cc1F [OMIPALISIB]
9 | > 30 µM (inactive) | > 30 µM (inactive) | > 30 µM (inactive) | > 30 µM (inactive) | > 30 µM (inactive) | > 30 µM (inactive) | > 30 µM (inactive) | > 30 µM (inactive) | > 30 µM (inactive) | > 30 µM (inactive) | > 30 µM (inactive) | > 30 µM (inactive) | Cc1cnc(NC(=O)Nc2cc(Br)c(C)cc2OC[C@@H]2CNCCO2)cn1 [RABUSERTIB]
10 | > 30 µM (inactive) | > 30 µM (inactive) | > 30 µM (inactive) | > 30 µM (inactive) | > 30 µM (inactive) | > 30 µM (inactive) | > 30 µM (inactive) | > 30 µM (inactive) | > 30 µM (inactive) | > 30 µM (inactive) | > 30 µM (inactive) | > 30 µM (inactive) | N#CC1(c2ccc(NC(=O)c3cccnc3NCc3ccncc3)cc2)CCCC1 [RIVOCERANIB]
11 | > 30 µM (inactive) | > 30 µM (inactive) | 4.39 µM (active) | > 30 µM (inactive) | > 30 µM (inactive) | > 30 µM (inactive) | > 30 µM (inactive) | > 30 µM (inactive) | > 30 µM (inactive) | > 30 µM (inactive) | > 30 µM (inactive) | > 30 µM (inactive) | Cn1cc(-c2cnn3c(N)c(Br)c([C@@H]4CCCNC4)nc23)cn1 [SCH-900776]
12 | > 30 µM (inactive) | > 30 µM (inactive) | > 30 µM (inactive) | > 30 µM (inactive) | > 30 µM (inactive) | > 30 µM (inactive) | > 30 µM (inactive) | > 30 µM (inactive) | > 30 µM (inactive) | > 30 µM (inactive) | > 30 µM (inactive) | > 30 µM (inactive) | CO[C@H]1C[C@@H]2CC[C@@H](C)[C@@](O)(O2)C(=O)C(=O)N2CCCC[C@H]2C(=O)O[C@H]([C@H](C)C[C@@H]2CC[C@@H](O)[C@H](OC)C2)CC(=O)[C@H](C)/C=C(\C)[C@@H](O)[C@@H](OC)C(=O)[C@H](C)C[C@H](C)/C=C/C=C/C=C/1C [SIROLIMUS]
13 | > 30 µM (inactive) | > 30 µM (inactive) | > 30 µM (inactive) | > 30 µM (inactive) | > 30 µM (inactive) | > 30 µM (inactive) | > 30 µM (inactive) | > 30 µM (inactive) | > 30 µM (inactive) | > 30 µM (inactive) | > 30 µM (inactive) | > 30 µM (inactive) | CO[C@H]1C[C@@H]2CC[C@@H](C)[C@@](O)(O2)C(=O)C(=O)N2CCCC[C@H]2C(=O)O[C@H]([C@H](C)C[C@@H]2CC[C@@H](OC(=O)C(C)(CO)CO)[C@H](OC)C2)CC(=O)[C@H](C)/C=C(\C)[C@@H](O)[C@@H](OC)C(=O)[C@H](C)C[C@H](C)/C=C/C=C/C=C/1C [TEMSIROLIMUS]
